Literature values, collected in US20230380414A1, “SYSTEMS, DEVICES AND METHODS FOR DELIVERING AEROSOLIZED FLUOROCARBONS” (BOUNDLESS SCIENCE, LLC, priority 2020, published 2023).
Where two headings read alike, the source gives them in different places.

How the values were obtained:
[1] = cited from earlier work
[2] = cited from earlier work; for Enthalpy of Vap. H: Table 1; for enthalpies of vaporization: running text
[3] = cited from earlier work; for Den: Table 1; for Specific Gravity: partial list of fluorinated and perfluorinated liquids
[4] = Table 1; cited from earlier work
[5] = cited from earlier work; for Spec. Ht Liq C: liquid
[6] = in water; cited from earlier work
[7] = Table 1; cited from earlier work; remark: listed apart in the source
[8] = @ 20° C.; cited from earlier work
[9] = partial list of fluorinated and perfluorinated liquids
[10] = Other perfluorinated liquids and their boiling points
[11] = commercial hydrofluoroalkanes, unit not given

**Q.** Which “Boiling point” value [1, 9] does the source give for `OCC(F)(F)OC(F)(F)C(F)(F)OC(F)(F)C(F)(F)OC(F)(F)C(F)(F)C(F)(F)C(F)(F)F` [1H,1H-Perfluoro-3,6,9-trioxatridecan-1-ol] here?
**A.** 175-176 °C

**Q.** With `FC(F)(F)C(F)(F)C(F)(F)C(F)(F)C(F)(F)C(F)(F)F` [C6F14] as the compound, how does the “Enthalpy of Vap. H” value [2] read?
**A.** 93 kJ/kg

**Q.** And the Boiling point ([1]; Table 1)?
**A.** 69 °C

**Q.** What about the Den [3] of the same compound?
**A.** 1.69 g/mL

**Q.** What about the Viscosity [4] of the same compound?
**A.** 0.979 cPs

**Q.** And the “Spec Ht gas C” value [5]?
**A.** 0.78 KJ/Kg/C

**Q.** And the “Spec. Ht Liq C” value [5]?
**A.** 0.71 KJ/Kg/C

**Q.** Which Boiling point [1, 10] does the source give for `FC(F)(F)C(F)(F)C(F)(F)C(F)(F)C(F)(F)N(C(F)(F)C(F)(F)C(F)(F)C(F)(F)C(F)(F)F)C(F)(F)C(F)(F)C(F)(F)C(F)(F)C(F)(F)F` [perfluorotripentyl amine] here?
**A.** 215 °C

**Q.** And the Boiling point ([1]; Table 2)?
**A.** 215 °C

**Q.** And the Boiling point ([1]; Table 4)?
**A.** 215 °C

**Q.** Which Solubility [6] does the source give for `OCC(F)(F)C(F)(C(F)(F)F)C(F)(F)C(F)(F)C(F)(F)C(F)(C(F)(F)F)C(F)(F)F` (stereo not drawn) [Perfluoro-3,7-dimethyloctan-1-ol, 3,7-Bis(trifluoromethyl)tridecafluorooctanol] here?
**A.** Insoluble in

**Q.** And the “Boiling point” value ([1]; 20 mmHg)?
**A.** 95° C./20

**Q.** For `OCC(F)(F)OC(F)(F)C(F)(F)OC(F)(F)C(F)(F)C(F)(F)C(F)(F)F` [1H,1H-Perfluoro-3,6-dioxadecan-1-ol], which “Boiling point” value [1, 9] is on record?
**A.** 150 °C

**Q.** For `FC(F)C(F)(F)C(F)(F)C(F)F` [1H.4H-Perfluorobutane, Octafluorobutane], which “Boiling point” value [1, 9] is on record?
**A.** 45 °C

**Q.** For `FC(F)(F)C(F)(F)C(F)(F)C(F)(F)C(F)(F)C(F)(F)C(F)(F)C(F)(F)C(F)(F)F` [Perfluorononane, Eicosafluorononane], which “Specific Gravity” value [3] is on record?
**A.** 1.799

**Q.** For “Perfluoro(triethylene glycol dimethyl ether) [Perfluorotriglyme]”, which “Boiling point” value [1, 9] is on record?
**A.** 106 °C

**Q.** With `FC(F)C(F)(F)C(F)(F)C(F)(F)C(F)(F)C(F)(F)C(F)(F)C(F)(F)F` [1H-Perfluorooctane, Heptadecafluorooctane] as the compound, how does the “Boiling point” value [1, 9] read?
**A.** 117 °C

**Q.** Which Boiling point [1, 10] does the source give for `FC(F)(F)C(F)(F)C(F)(F)C(F)(F)C(F)(F)C(F)(F)C(F)(F)C(F)(F)Br` [Perfluorooctylbromide] here?
**A.** 142 °C

**Q.** What about the Boiling point ([1]; Table 2) of the same compound?
**A.** 142 °C

**Q.** And the Boiling point ([1]; Table 4)?
**A.** 142 °C

**Q.** With `FC(F)(F)C(F)(F)C(F)(F)C(F)(F)C(F)(F)C(F)(F)C(F)(F)C(F)(F)F` [Perfluorooctane, Octadecafluorooctane] as the compound, how does the “Enthalpy of Vap. H” value [2] read?
**A.** 76 kJ/kg

**Q.** What about the Boiling point ([1]; Table 1) of the same compound?
**A.** 377 °C

**Q.** And the Boiling point ([1]; Table 2)?
**A.** 103.0 °C

**Q.** And the Boiling point ([1]; Table 4)?
**A.** 103.0 °C

**Q.** What about the “Boiling point” value [1, 9] of the same compound?
**A.** 103-104 °C

**Q.** What about the Den [3] of the same compound?
**A.** 1.77 g/mL

**Q.** And the “Specific Gravity” value [3]?
**A.** 1.73

**Q.** What about the Viscosity [4] of the same compound?
**A.** 1.800 cPs

**Q.** For `FC(F)C(F)(F)C(F)(F)C(F)(F)C(F)(F)C(F)(F)F` [1H-Perfluorohexane, Tridecafluorohexane], which “Boiling point” value [1, 9] is on record?
**A.** 70 °C

**Q.** For `FC(F)C(F)(F)C(F)(F)C(F)(F)C(F)(F)C(F)(F)C(F)(F)C(F)F` [1H,8H-Perfluorooctane, Hexadecafluorooctane], which “Boiling point” value [1, 9] is on record?
**A.** 134 °C

**Q.** With `OCC(F)(F)C(F)(F)C(F)(F)C(F)(F)F` [1H, 1H-Perfluoro-1-pentanol, 1H, 1H-Nonafluoro-1-pentanol] as the compound, how does the “Boiling point” value [1, 9] read?
**A.** 110-111 °C

**Q.** With `FC(C(F)(F)F)C(F)(F)F` [HFA227ea ™] as the compound, how does the “Boiling point” value [1, 11] read?
**A.** −17

**Q.** With “Perfluoro(triethylene glycol dimethyl ether) [Perfluorotetraglyme]” as the compound, how does the “Boiling point” value [1, 9] read?
**A.** 138 °C

**Q.** Which “Boiling point” value [1, 9] does the source give for `FC(F)C(F)(F)C(F)(F)C(F)(F)C(F)(F)F` [1H-Perfluoropentane, Undecafluoropentane] here?
**A.** 42 °C

**Q.** Which “Boiling point” value [1, 9] does the source give for `FC(F)C(F)(F)C(F)(F)C(F)(F)C(F)(F)C(F)(F)C(F)(F)F` [1H-Perfluoroheptane, Pentadecafluoroheptane] here?
**A.** 97 °C

**Q.** With `FC(F)(F)C(F)(F)C(F)(F)C(F)(F)F` [Perfluorobutane] as the compound, how does the “Enthalpy of Vap. H” value [2] read?
**A.** 88 kJ/kg

**Q.** What about the enthalpies of vaporization [2] of the same compound?
**A.** 88 kJ/kg

**Q.** And the Boiling point [1, 10]?
**A.** −1.7 °C

**Q.** And the Boiling point ([1]; Table 1)?
**A.** −1.8 °C

**Q.** What about the Boiling point ([1]; Table 2) of the same compound?
**A.** −1.7 °C

**Q.** And the Boiling point ([1]; Table 4)?
**A.** −1.7 °C

**Q.** And the Boiling point [1]?
**A.** −1.7 C

**Q.** What about the Boiling point ([1]; listed as perfiiuorobutane) of the same compound?
**A.** −1.7 °C

**Q.** And the Den [3]?
**A.** 1.63 g/mL

**Q.** And the Viscosity [4]?
**A.** 0.012 cPs

**Q.** What about the “Spec Ht gas C” value [5] of the same compound?
**A.** 0.69 KJ/Kg/C

**Q.** What about the “Spec. Ht Liq C” value [5] of the same compound?
**A.** 0.53 KJ/Kg/C

**Q.** For `FC(F)(F)C(F)(C(F)(F)F)C(F)(C(F)(F)F)C(F)(F)F` [Perfluoro-(2,3-Dimethylbutane), 1,1,1,2,3,4,4,4-Octafluoro-2,3-bis(trifluoromethyl)butane], which “Specific Gravity” value [3] is on record?
**A.** 1.7729

**Q.** Which Boiling point [1, 10] does the source give for `FC1(F)C(F)(F)C(F)(F)C2(F)C(F)(C1(F)F)C(F)(F)C(F)(F)C1(F)C(F)(F)C(F)(F)C(F)(F)C(F)(F)C12F` (stereo not drawn) [Perfluoroperhydrophenanthrene] here?
**A.** 215 °C

**Q.** What about the Boiling point ([1]; Table 2) of the same compound?
**A.** 215 °C

**Q.** And the Boiling point ([1]; Table 4)?
**A.** 215 °C

**Q.** Which Boiling point [1, 10] does the source give for `OCC(F)(F)F` [2,2,2-trifluoroethanol] here?
**A.** 78 °C

**Q.** For `COC(F)(F)C(F)(F)C(F)(F)F` [methyl perfluoropropyl ether], which Boiling point [1, 10] is on record?
**A.** 34 °C

**Q.** Which results are given for `FC1(F)C(F)(F)C(F)(F)C2(F)C(F)(F)C(F)(F)C(F)(F)C(F)(F)C2(F)C1(F)F` (stereo not drawn) [Perfluorodecalin, Octadecafluorodecalin]?
**A.** Enthalpy of Vap. H [2]: 85 kJ/kg; O2 Solubility [7]: 49 ml/100 ml; Den [3]: 1.92 g/mL; Viscosity [4]: 5.100 cPs; Spec. Ht Liq C [5]: 1.05 KJ/Kg/C; Vapor Pressure [8]: 6 torr @ 20 °C

**Q.** With `FC(F)C(F)(F)C(F)(F)C(F)(F)C(F)(F)C(F)F` [1H,6H-Perfluorohexane, Dodecafluorohexane] as the compound, how does the “Boiling point” value [1, 9] read?
**A.** 93 °C

**Q.** For `FC(F)(F)C(F)(F)C(F)(F)C(F)(F)N(C(F)(F)C(F)(F)C(F)(F)C(F)(F)F)C(F)(F)C(F)(F)C(F)(F)C(F)(F)F` [perfluoro tributyl amine], which Boiling point [1, 10] is on record?
**A.** 178 °C

**Q.** And the Boiling point ([1]; Table 2)?
**A.** 178 °C

**Q.** What about the Boiling point ([1]; Table 4) of the same compound?
**A.** 178 °C

**Q.** For `FC(F)(F)C(F)(F)C(F)(F)C(F)(F)C(F)(F)C(F)(F)C(F)(F)F` [perfluoroheptane, Hexadecafluoroheptane], which “Enthalpy of Vap. H” value [2] is on record?
**A.** 90 kJ/kg

**Q.** What about the Boiling point [1, 10] of the same compound?
**A.** 56.0 °C

**Q.** And the Boiling point ([1]; Table 1)?
**A.** 82 °C

**Q.** What about the Boiling point ([1]; Table 2) of the same compound?
**A.** 56.0 °C

**Q.** What about the Boiling point ([1]; Table 4) of the same compound?
**A.** 56.0 °C

**Q.** What about the “Boiling point” value [1, 9] of the same compound?
**A.** 80-82 °C

**Q.** And the Den [3]?
**A.** 1.75 g/mL

**Q.** What about the “Specific Gravity” value [3] of the same compound?
**A.** 1.72

**Q.** What about the Viscosity [4] of the same compound?
**A.** 0.900 cPs

**Q.** And the “Spec Ht gas C” value [5]?
**A.** 0.82 KJ/Kg/C

**Q.** What about the “Spec. Ht Liq C” value [5] of the same compound?
**A.** 0.64 KJ/Kg/C

**Q.** With `FC(F)(F)C(F)(F)C(F)(F)C(F)(F)C(F)(F)C(F)(F)F` [Perfluorohexane] as the compound, how does the Boiling point [1, 10] read?
**A.** 56.0 °C

**Q.** And the Boiling point ([1]; Table 2)?
**A.** 56.0 °C

**Q.** What about the Boiling point ([1]; Table 4) of the same compound?
**A.** 56.0 °C

**Q.** For `FCC(F)(F)F` [HFA 134a ™], which “Boiling point” value [1, 11] is on record?
**A.** −26

**Q.** With `COC(F)(F)C(F)(F)C(F)(F)C(F)(F)F` [methyl perfluorobutylether] as the compound, how does the Boiling point [1, 10] read?
**A.** 60 °C

**Q.** With `FC(F)(F)C(F)(F)C(F)(F)F` [perfluoropropane] as the compound, how does the Boiling point [1, 10] read?
**A.** −36.7 °C

**Q.** What about the Boiling point ([1]; Table 2) of the same compound?
**A.** −36.7 °C

**Q.** And the Boiling point ([1]; Table 4)?
**A.** −36.7 °C

**Q.** Which “Enthalpy of Vap. H” value [2] does the source give for `FC(F)(F)C(F)(F)C(F)(F)C(F)(F)C(F)(F)F` [perfluoropentane] here?
**A.** 94 kJ/kg

**Q.** What about the enthalpies of vaporization [2] of the same compound?
**A.** 94 kJ/kg

**Q.** And the “O2 Solubility” value [7]?
**A.** 54 ml/100 ml

**Q.** What about the Boiling point [1, 10] of the same compound?
**A.** 28.0 °C

**Q.** And the Boiling point ([1]; Table 1)?
**A.** 30 °C

**Q.** What about the Boiling point ([1]; Table 2) of the same compound?
**A.** 28.0 °C

**Q.** What about the Boiling point ([1]; Table 4) of the same compound?
**A.** 28.0 °C

**Q.** And the Boiling point ([1]; running text)?
**A.** 30 C

**Q.** What about the Den [3] of the same compound?
**A.** 1.59 g/mL

**Q.** And the Viscosity [4]?
**A.** 0.460 cPs

**Q.** What about the “Specific Heat” value ([5]; chilled aerosolized liquid) of the same compound?
**A.** 1.05 KJ/Kg*C

**Q.** And the “Spec Ht gas C” value [5]?
**A.** 1.02 KJ/Kg/C

**Q.** What about the “Spec. Ht Liq C” value [5] of the same compound?
**A.** 1.05 KJ/Kg/C

**Q.** For `FC(F)C(F)(F)C(F)(F)C(F)(F)C(F)(F)C(F)(F)C(F)(F)C(F)(F)C(F)(F)F` [1H-Perfluorononane, Nonadecafluorononane], which “Boiling point” value [1, 9] is on record?
**A.** 138 °C
